Data reported in publication PMC12418948, “Intranasal Administration of KCNN2 Blocking Peptide Improves Deficits in Cognitive Flexibility in Mouse Model of Fetal Alcohol Spectrum Disorders” (International Journal of Neuropsychopharmacology, 2025).
“Also recorded” adds a separate entry of the source. Positions of bridges follow the written chain, without caps; N, C: chain ends. Non-standard residues stand in square brackets, D forms with d. Residues, ends and D or L forms follow the SMILES beside them. Dab = NCC[C@H](N)C(=O)O

Assays:
[1] = test system: Jurkat (clone E6-1) cells; assay: ATP cell viability (cytotoxicity) assay, CellTiter-Glo 2.0; type: cell-based, human
Description: Potential cytotoxicity of Lei-Dab7 was assessed by an ATP detection assay. Jurkat (clone E6-1) cells were used as they express KCNN2 channels constitutively and have been used to assess the cytotoxicity of compounds that block KCNN2.[37]^,[38] After recovery from cryopreservation, cells were plated into V-bottom, 96-well plates (2 × 10^4 cells per well), and the compound (Lei-Dab7) or control (negative control: media alone or 10% PBS in media; positive control: approximately 1% sodium dodecyl sulfate in media) was added into the culture media. After incubation for 24 hours, cells were assessed for viability using a CellTiter-Glo 2.0 kit (Promega, WI). Briefly, CellTiter-Glo 2.0 reagent was thawed and warmed to approximately 22°C, then mixed by gentle inversion. Once thoroughly mixed, 100 μL of reagent was distributed into each well, and the plates were gently mixed for approximately 2 minutes on an orbital shaker for cell lysis. The plates were then incubated for approximately10 minutes at room temperature to stabilize the luminescent signal. The amount of light produced from each well was quantified using a Cytation 5 plate reader (BioTek, VT). Cell viability was calculated as a percentage of the mean of the negative control […] for each well. […]

KCNN2 = assay: Intranasal delivery to PFC, immunohistochemistry for biotin and KCNN2; type: in vivo, mouse (CD-1); settings: PFC in addition to motor cortex
Description: Mice were deeply anesthetized with isoflurane (Henry Schein, OH) and perfused through the ascending aorta with ice cold 4% paraformaldehyde (PFA) following a standard laboratory protocol. Brains were collected and post-fixed in 4% PFA at 4°C overnight, followed by incubation in 10% and 30% sucrose in PBS at 4°C for 24 hours. Coronal sections at 60 μm thickness were made using a cryostat (CM3050S; Leica, Germany). Free floating sections were incubated with hydrogen peroxide in methanol (1:4) solution at −20°C for 20 minutes to inactivate endogenous peroxidase activity. […]
Lei-Dab7 or biotinylated Lei-Dab7 (Smartox Biotechnology, France) was dissolved in PBS and administered to mice intranasally at 3.0 μg/kg/day. […] Physiological monitoring was recorded at 30 minutes and 24 hours post administration by using PhysioSuite (Kent Scientific, CT).
KCNN2, NeuN, GFAP, IBA1, and biotin-positive cells were quantified. […] Allen Brain Atlas was used to define different brain regions visualized by DAPI staining, and single-plane images from defined regions were used for the quantification. The researcher conducting the quantification was blinded to treatment groups throughout the analysis to minimize bias. The size of the region of interest was determined for each analysis to include a sufficient number of labeled cells with clear and detailed staining. […]

rat = test system: rat; set-up: method as in 2 sources, one per row (each row's own in cited_ref): ref 82 = [82]; PMID 15985330; doi:10.1016/j.neulet.2005.05.050; 82. Deschaux O , Bizot JC . Apamin produces selective improvements of learning in rats . Neurosci Lett. 2005; 386 : 5 – 8 . 10.1016/j.neulet.2005.05.050 15985330 ||| ref 26, 82, 83 = [26]; PMID 18561910; doi:10.1016/j.ejphar.2008.05.019; 26. Mpari B , Sreng L , Regaya I , Mourre C . Small-conductance Ca(2+)-activated K(+) channels: heterogeneous affinity in rat brain structures and cognitive modulation by specific blockers . Eur J Pha || [82]; PMID 15985330; doi:10.1016/j.neulet.2005.05.050; 82. Deschaux O , Bizot JC . Apamin produces selective improvements of learning in rats . Neurosci Lett. 2005; 386 : 5 – 8 . 10.1016/j.neulet.2005.05.050 15985330 || [83]; PMID 9148239; doi:10.1016/s0304-3940(97)13367-5; 83. Deschaux O , Bizot JC , Goyffon M . Apamin improves learning in an object recognition task in rats . Neurosci Lett. 1997; 222 : 159 – 162 . 10.1016/s0304-3940(97)13367-5 9148239; settings: cited from earlier work

Compound: CC[C@H](C)[C@@H]1NC(=O)[C@@H]2CSSC[C@H](NC(=O)[C@H](Cc3ccccc3)NC(=O)[C@H](C)N)C(=O)N[C@@H](CC(N)=O)C(=O)N[C@@H](CC(C)C)C(=O)N[C@@H](CCCNC(=N)N)C(=O)N[C@@H](CCN)C(=O)N[C@H]3CSSC[C@H](NC(=O)[C@H](CCCCN)NC(=O)[C@H](CC(=O)O)NC(=O)CNC1=O)C(=O)N[C@@H](CCC(=O)O)C(=O)N[C@H](C(=O)N[C@H](C(=O)N[C@@H](CCCCN)C(=O)N[C@@H](Cc1c[nH]cn1)C(N)=O)C(C)C)CSSC[C@H](NC(=O)[C@H](CO)NC(=O)[C@H](CC(C)C)NC(=O)[C@H](CCC(N)=O)NC3=O)C(=O)N[C@@H](CCCNC(=N)N)C(=O)N[C@@H](CO)C(=O)N[C@@H](CC(C)C)C(=O)NCC(=O)N[C@@H](CC(C)C)C(=O)N[C@@H](CC(C)C)C(=O)NCC(=O)N[C@@H](CCCCN)C(=O)N2 [Lei-Dab7, Leiurotoxin-1 Dab7] (H-AFCNLR[Dab]CQLSCRSLGLLGKCIGDKCECVKH-NH2; disulfide 3-21, 8-26, 12-28)
- cytotoxicity ([1]; 24-hour culture, ATP cell viability assay, even as high as at 100 μM): did not show any cytotoxicity
- cytotoxicity (summary wording) ([1]; in vitro, abstract/introduction wording): negligible cytotoxicity; also recorded: no detectable cytotoxicity
- delivery to target brain regions (KCNN2): efficiently reaches the target in the brain; also recorded: effectively reaches its target regions, including the PFC (Figs. 3, 4) in addition to the motor cortex
- negative effects on learning in rats (rat): no negative effects
